Results published in patent publication US10561629B2, “Food containing glycine and use thereof” (AJINOMOTO CO., INC., priority 2004, dated 2020).
Read-outs that look alike come from different tables or passages of the source.

Assays:
[1] = one participant, 1.0-1.5 g tablet glycine, trip to East Coast USA, vs previous similar trips
From the text: In the Figure, glycine (substantially pure tablet glycine containing only excipient and flavor) was taken at the time point marked with an arrow, wherein 1.0 g was taken on “June 20” and “June 21” and 1.5 g was taken on “June 22”-“June 26” and “June 29”.

[2] = From the text: Table 5 reports the bowel movements on the next morning and the corresponding number of days.
[3] = test participant A, in water before bed
From the text: The test participant A (body weight 45 kg) took glycine (substantially pure powder) in an amount shown in Table 6 before going to bed by dissolving same in water, and recorded the level of realization of deep sleep. When the realization of deep sleep increased than usual, “+” was marked, when the realization of deep sleep was almost the same as usual, “±” was marked and when it became worse, “−” was marked.

[4] = rats, 2 g/kg, mean±standard error
Protocol: Glycine (substantially pure glycine powder) was administered to rats at 0 g/kg and 2 g/kg (0 g/kg for control) and using the rat, spontaneous electroencephalogram and cervix electromyogram were recorded through an electrode placed in the cortex hippocampus, and further, the amount of spontaneous motor activity was measured by an infrared ray monitor. The sleep-wake cycle was analyzed from the electroencephalogram, electromyogram and behavior record (kymogram), and percent occupation of light period and dark period and latency time were calculated.

[5] = 3 g 30 min before bedtime, next daytime, mean ± standard error
Protocol: A single-blind crossover study aimed at confirmation of the effect of glycine on sleep was performed with 7 male adults (30s-40s, body weight 62-79 kg). The test participants took glycine (granule containing citric acid and the like) in an amount equivalent to 3 g of glycine 30 min before bedtime, and reduced maltose containing components other than glycine (citric acid and the like) and adjusted to an almost indistinguishable taste was used as a placebo. The sleep hours on the day of administration was limited to about 75% (5-6.5 hr) of comfortable sleep hours each test participant voluntarily notified, and a nap was prohibited until the end of the administration. For the test, glycine and placebo were each taken for 3 days with an interval of a 14-21 day non-intake period, totaling 4-5 weeks. Of the 3 days, the following investigation and measurement were performed at 10 o'clock, 14 o'clock and 18 o'clock of the next day of the first day of the intake.
(2) To evaluate the cognitive and psychomotor function as a reflection of the quality of sleep, an operation efficiency test using a computer was performed. As a three kind discrimination response task, a task of responding to only one predetermined kind from randomly designed three kinds of graphics on the screen was given.

[6] = intake at 0.1 g per day; cited from earlier work
[7] = Voluntary comments on quality of sleep, 77 participants (Experimental Example 5); conditions: 3 g glycine
[8] = test participant A, tablet intake (1 g) before bed
[9] = test participant B, intake (3 g) with yoghurt before bed
[10] = test participant B, powder intake (3 g) before bed
[11] = 0-3 hr after administration, dark period
[12] = 0-3 hr after administration, light period
[13] = 4-6 hr after administration, dark period
[14] = 4-6 hr after administration, light period
[15] = voluntary comments of 77 participants

participants commenting that the quality was degraded ([7]; out of 77 participants): 2 participants
Awakening was fresh: Degrading effect [7, 15]: 1 person
Deep sleep was realized: Degrading effect [7, 15]: 0 person
Did not wake up at midnight: Degrading effect [7, 15]: 1 person
Fell asleep easily: Degrading effect [7, 15]: 0 person
Had no dream: Degrading effect [7, 15]: 0 person
Sleep was deeper: Degrading effect [7, 15]: 0 person
Slept well: Degrading effect [7, 15]: 0 person
Snoring decreased: Degrading effect [7, 15]: 0 person
sleepiness during daytime reduced: Degrading effect [7, 15]: 0 person
SMILES: NCC(=O)O [glycine, Glycine]
arousal during sleep [1]: reduced or eliminated arousal during sleep
No bowel movement (next morning) [2, 8]: 2 days
Presence of bowel movement (next morning) [2, 8]: 10 days
No bowel movement (next morning) [2, 9]: 0 days
Presence of bowel movement (next morning) [2, 9]: 4 days
No bowel movement (next morning) [2, 10]: 1 days
Presence of bowel movement (next morning) [2, 10]: 7 days
Realization of deep sleep ([3]; 1/1 teaspoon, general amount 2.5 g): +
Realization of deep sleep ([3]; ¼ teaspoon, general amount 0.6 g): +
Realization of deep sleep ([3]; ½ teaspoon, general amount 1.2 g): +
Percent occupation, fast wave sleep stage [4, 11]: 3.2 ± 1.7%
Percent occupation, slow wave sleep stage [4, 11]: 29.2 ± 6.5%
Percent occupation, waking stage [4, 11]: 67.6 ± 7.9%
Percent occupation, fast wave sleep stage [4, 12]: 5.5 ± 1.6%
Percent occupation, slow wave sleep stage [4, 12]: 54.9 ± 4.9%
Percent occupation, waking stage [4, 12]: 39.6 ± 6.0%
Percent occupation, fast wave sleep stage [4, 13]: 3.0 ± 0.7%
Percent occupation, slow wave sleep stage [4, 13]: 31.5 ± 2.8%
Percent occupation, waking stage [4, 13]: 65.6 ± 3.4%
Percent occupation, fast wave sleep stage [4, 14]: 13.4 ± 2.1%
Percent occupation, slow wave sleep stage [4, 14]: 65.9 ± 2.0%
Percent occupation, waking stage [4, 14]: 20.7 ± 0.8%
Amount of spontaneous motor activity at 6 hr after administration ([4]; dark period): 19464 ± 2765 count
Latency time, fast wave sleep stage ([4]; dark period): 118.2 ± 28.3 min
Latency time, slow wave sleep stage ([4]; dark period): 78.6 ± 22.8 min
Amount of spontaneous motor activity at 6 hr after administration ([4]; light period): 2316 ± 295 count
Latency time, fast wave sleep stage ([4]; light period): 20.9 ± 3.4 min
Latency time, slow wave sleep stage ([4]; light period): 8.5 ± 1.2 min
Response time ([5]; placebo 0.393 ± 0.025, p value 0.028): 0.366 ± 0.021 s
Lapse (number of response where reaction time was 500 msec or longer) ([5]; placebo 2.67 ± 3.06, p value 0.017): 1.19 ± 1.69 times
percentage of correct answer ([5]; placebo 95.6 ± 5.20, p value 0.043): 98.4 ± 1.16%
memory and attention [6]: increases memory and attention
participants commenting that no effect was found ([7]; out of 77 participants): 17 participants
participants commenting that the quality of sleep was improved ([7]; out of 77 participants): 58 participants
Awakening was fresh: Enhancing effect on quality of sleep [7, 15]: 24 person
Deep sleep was realized: Enhancing effect on quality of sleep [7, 15]: 8 person
Did not wake up at midnight: Enhancing effect on quality of sleep [7, 15]: 6 person
Fell asleep easily: Enhancing effect on quality of sleep [7, 15]: 6 person
Had no dream: Enhancing effect on quality of sleep [7, 15]: 4 person
Sleep was deeper: Enhancing effect on quality of sleep [7, 15]: 10 person
Slept well: Enhancing effect on quality of sleep [7, 15]: 2 person
Snoring decreased: Enhancing effect on quality of sleep [7, 15]: 19 person
sleepiness during daytime reduced: Enhancing effect on quality of sleep [7, 15]: 4 person
